We go through one molecule from patent US9198909B1, “Materials and methods for inhibiting mamalian S-nitrosoglutathione reductase” (Indiana University Research and Technology Corporation, priority 2007, dated 2015).

The assay concerns the target T1, GSNOR•NADH complex (Homo sapiens, UniProt P11766).
T1 construct: made in house; host or cells: E. coli
Briefly: Fluorescence equilibrium binding to GSNOR•NADH complex. Particulars: 1.7 μM NADH, 2 μM GSNOR, 50 μM compound 8. Here is the method: Referring now to FIG. 2, (A) Changes in the fluorescence of NADH (curve a) upon sequential addition of GSNOR (curve b) and compound 8 (curve c). To a solution of 1.7 μM NADH were added 2 μM GSNOR and 50 μM compound 8 in sequence and the fluorescence of the solution measured each time (λexc=350 nm; λemm=375-550 nm); (B) Changes in the fluorescence of NADH (curve a) upon sequential addition of GSNOR (curve b), 12-HDDA (curve c) and compound 8 (curve d). To a solution of 1.7 μM NADH were added 2 μM GSNOR, 810 μM 12-HDDA and 50 μM compound 8 in sequence and the fluorescence measured each time (λexc=350 nm; λemm=375-550 nm); (C) Binding of compound 8 to GSNOR•NADH complex. The change in fluorescence of a 1.7 μM NADH and 2 μM GSNOR mixture (λexc=350 nm; λemm=455 nm) with increasing concentrations of compound 8 was fitted to a single site binding model (equation 1; see materials and methods) using the Graphpad Prizm 4. All of the fluorescence studies were conducted at room temperature in 50 mM potassium phosphate pH 7.5.
Referring now to Table 3, inhibition experiments were performed at 25° C. in 50 mM potassium phosphate (pH 7.5) including 0.1 mM EDTA. […] The dissociation constant was measured at 25° C. in 50 mM potassium phosphate pH 7.5. […]
Fluorescence studies were conducted in 50 mM potassium phosphate pH 7.5, at room temperature using a Fluoromax-2 fluorescence spectrometer (Instruments S.A., Inc., Edison, N.J.). The equilibrium dissociation constant of GSNOR inhibitors was determined by measuring the changes in the fluorescence of GSNOR bound NADH (λexc=350 nm; λemm=455 nm) upon the addition of inhibitor. […] The decrease in fluorescence at 455 nm with each addition of inhibitor was plotted against the final concentration of inhibitor and the data were fitted to equation 1 using nonlinear regression to obtain the dissociation constant of the inhibitor for GSNOR-NADH complex,
[formula] In equation 1, ΔF is the change in the fluorescence at 455 nm upon the addition of inhibitor. ΔFM is the maximum fluorescence change that was obtained from curve fitting. […]

T1 sequence (P11766 2-374 limits assumed, one chain of several): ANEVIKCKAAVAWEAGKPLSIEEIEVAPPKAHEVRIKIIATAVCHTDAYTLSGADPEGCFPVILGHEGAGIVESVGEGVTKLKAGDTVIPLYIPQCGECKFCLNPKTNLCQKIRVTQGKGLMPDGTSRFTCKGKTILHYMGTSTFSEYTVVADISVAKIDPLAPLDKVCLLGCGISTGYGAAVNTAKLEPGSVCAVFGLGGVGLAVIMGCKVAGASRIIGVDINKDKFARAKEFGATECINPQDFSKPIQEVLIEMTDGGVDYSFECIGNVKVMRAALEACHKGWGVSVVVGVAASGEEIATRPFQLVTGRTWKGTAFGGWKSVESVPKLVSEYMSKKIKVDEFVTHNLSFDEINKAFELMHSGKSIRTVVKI

In the case of `N#Cc1ccccc1CSc1nc2ccsc2c(=O)n1Cc1ccc(C(=O)O)cc1` [Compound 8], the “effect on fluorescence of GSNOR bound NADH” value is reported as “decreased the fluorescence of NADH”. Also, the “effect on GSNOR•NADH•12-HDDA complex (displacement of 12-HDDA)” value (810 μM 12-HDDA) is recorded as “displaced 12-HDDA from the active site”.
